Measured values reported in patent US8912202B2, “N-(benzimimdazol-2-yl)-cyclopropane carboxamides as lysophosphatidic acid antagonists” (Merck Patent GmbH, priority 2011, dated 2014).

Molecular target: T1, LPA2R (Homo sapiens, UniProt Q9HBW0)
T1 construct: expressed in transfected cells; host or cells: U2OS
Assay: LPA2R-Calciumflux assay (FLIPR, intracellular calcium mobilisation after LPA)
Format: cell-based
Conditions: U2OS cells recombinant expressing LPA2R; antagonism of LPA-induced calcium flux; racemate of the two trans enantiomers unless marked enantiomer
Description: The assay detects intra cellular calcium which is generated by cells upon activation of the LPA2 receptor by its ligand LPA. This transient calcium mobilization can be monitored using a commercial calcium detection kit (e.g. from Molecular Devices). The main component of such a kit is a dye, which becomes fluorescent when calcium is present—a transient fluorescence signal after addition of a ligand to a test well are the result. Readers like the FLIPR (Molecular Devices) can be used to monitor such transient “Ca-flux” signals.
The signals are calculated according to peak maximum minus base line.
Compounds which are antagonists of LPA lead to a decreased mobilisation of intracellular calcium and thus to a lower signal. The assay is performed in microplates (384 wells per plate).
LPA2R-Calciumflux Assay Protocol
The assay is run according to the following procedure:
50 uL seed cells (10000 cells/well in DMEM buffer)
• Incubate 24 h at 37° C., 10% CO2 • aspirate medium 50 uL add calcium dye 1×HBSS/HEPES buffer • incubate 1 h at 37° C. (“loading”) • equilibrate 10 min at RT 5 uL add compounds in HEPES buffer • shake 10 sec. at 1000 rpm • incubate 15 min at RT 20 uL add LPA (in the FLIPR Tetra) in Krebs-buffer/BSA & measurement
The cells are seeded in DMEM buffer (DMEM, 10% FCS, 10 mM HEPES, 1% Pen/Strep).
Dye loading is done in HBSS/HEPES buffer (100 mL 10×HBSS+20 mL 1M HEPES+880 mL water, pH 7.4)
The LPA is added in Krebs/BSA buffer (120 mM NaCl, 5 mM KCl, 0.62 mM MgSO4, 1.8 mM CaCl2, 10 mM HEPES, 6 mM D(+)-Glucose, 0.2% BSA, pH 7.4).
The compounds are pre-diluted in HEPES buffer (20 mM, pH 7.4), whereby the final DMSO content in the assay is kept at 1%. The compounds are pre-diluted in order to generate dose response series on the microplates. The dose response series consist of 10 concentrations for each compound from 30 uM final to 1 nM final. From all compound wells the resulting signals are referred to control wells (located on each plate besides the compound wells) in terms of % activity.
From these % activity values—along with the corresponding compound concentrations—IC50 values are fitted for each compound using standard fitting programs such as Graphpad Prism. Here the method “log(inhibitor) vs. response—Variable slope” is used.

T1 sequence (Q9HBW0 whole entry): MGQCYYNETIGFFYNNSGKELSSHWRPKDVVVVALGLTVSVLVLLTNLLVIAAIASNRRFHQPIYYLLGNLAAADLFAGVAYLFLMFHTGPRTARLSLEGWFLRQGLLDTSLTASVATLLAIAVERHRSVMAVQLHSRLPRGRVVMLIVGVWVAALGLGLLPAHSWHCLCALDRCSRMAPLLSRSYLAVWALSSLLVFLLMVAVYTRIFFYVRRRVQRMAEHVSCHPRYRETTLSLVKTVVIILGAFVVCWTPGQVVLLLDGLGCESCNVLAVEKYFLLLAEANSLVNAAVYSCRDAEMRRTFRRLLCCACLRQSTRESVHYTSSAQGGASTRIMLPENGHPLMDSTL

Q: Which IC50 does the source give for N#Cc1cccc(C2CC2C(=O)Nc2nc3ccccc3[nH]2)c1 (racemic) [2-(3-Cyano-phenyl)-cyclopropane-carboxylic acid (1H-benzoimidazol-2-yl)-amide] here?
A: 0.1 to 1 µM

Q: O=C(Nc1nc2cc(Br)cnc2[nH]1)[C@H]1C[C@@H]1c1ccccc1 [(1S,2S)-2-Phenyl-cyclopropanecarboxylic acid (6-bromo-3H-imidazo[4,5-b]pyridin-2-yl)-amide] was tested. Which IC50 did it give?
A: 0.01 to 0.1 µM

Q: With O=C(Nc1nc2c(OCCN3CCCC3)cccc2[nH]1)C1CC1c1ccccc1 (single isomer, unassigned; enantiomer-2) [enantiomer-2-Phenyl-cyclopropane-carboxylic acid [4-(2-pyrrolidin-1-yl-ethoxy)-1H-benzoimidazol-2-yl]-amide] as the molecule, how does the IC50 read?
A: 0.1 to 1 µM

Q: With COC(=O)c1cccc2[nH]c(NC(=O)C3CC3c3ccccc3)nc12 (racemic) [2-[(2-Phenyl-cyclopropane-carbonyl)-amino]-1H-benzoimidazole-4-carboxylic acid methyl ester] as the molecule, how does the IC50 read?
A: 0.1 to 1 µM

Q: Cn1c(NC(=O)C2CC2c2ccccc2)nc2ccccc21 (racemic) [2-Phenyl-cyclopropane-carboxylic acid (1-methyl-1H-benzoimidazol-2-yl)-amide] was tested. Which IC50 did it give?
A: > 10 µM

Q: Which IC50 does the source give for O=C(Nc1nc2ccccc2[nH]1)C1CC1c1ccccc1F (racemic) [2-(2-Fluoro-phenyl)-cyclopropane-carboxylic acid (1H-benzoimidazol-2-yl)-amide] here?
A: 0.1 to 1 µM

Q: O=C(Nc1nc2ccccc2[nH]1)C1CC1c1cccc(Cl)c1Cl (racemic) [2-(2,3-Dichloro-phenyl)-cyclopropane-carboxylic acid (1H-benzoimidazol-2-yl)-amide] was tested. Which IC50 did it give?
A: 0.1 to 1 µM

Q: O=C(Nc1nc2c(Cl)cc(Cl)cc2[nH]1)C1CC1c1ccccc1 (racemic) [2-Phenyl-cyclopropane-carboxylic acid (4,6-dichloro-1H-benzoimidazol-2-yl)-amide] was tested. Which IC50 did it give?
A: 0.1 to 1 µM

Q: How did the IC50 turn out when O=C(Nc1nc2ccccc2[nH]1)C1CC1c1c(Cl)cccc1Cl (racemic) [2-(2,6-Dichloro-phenyl)-cyclopropane-carboxylic acid (1H-benzoimidazol-2-yl)-amide] was run?
A: > 10 µM

Q: How did the IC50 turn out when O=C(Nc1nc2ccccc2[nH]1)C1CC1c1cccc(Cl)c1 (racemic) [2-(3-Chloro-phenyl)-cyclopropane-carboxylic acid (1H-benzoimidazol-2-yl)-amide] was run?
A: 0.1 to 1 µM

Q: How did the IC50 turn out when N#Cc1ccc2nc(NC(=O)C3CC3c3cccc(F)c3)[nH]c2c1 (racemic) [2-(3-Fluoro-phenyl)-cyclopropane-carboxylic acid (6-cyano-1H-benzoimidazol-2-yl)-amide] was run?
A: < 0.01 µM

Q: With O=C(Nc1nc2c([N+](=O)[O-])cc(C(F)(F)F)cc2[nH]1)C1CC1c1ccccc1 (racemic) [2-Phenyl-cyclopropane-carboxylic acid (4-nitro-6-trifluoromethyl-1H-benzoimidazol-2-yl)-amide] as the molecule, how does the IC50 read?
A: 0.1 to 1 µM

Q: How did the IC50 turn out when O=C(Nc1nc2cc(Cl)c(Cl)cc2[nH]1)C1CC1c1ccccc1 (racemic) [2-Phenyl-cyclopropane-carboxylic acid (5,6-dichloro-1H-benzoimidazol-2-yl)-amide] was run?
A: 0.1 to 1 µM

Q: CN(C)c1cccc(C2CC2C(=O)Nc2nc3ccccc3[nH]2)c1 (racemic) [2-(3-Dimethylamino-phenyl)-cyclopropane-carboxylic acid (1H-benzoimidazol-2-yl)-amide] was tested. Which IC50 did it give?
A: 0.1 to 1 µM

Q: With O=C(Nc1nc2ccccc2[nH]1)C1CC1c1ccccc1 (single isomer, unassigned; enantiomer-2) [drawing 58, enantiomer-2-Phenyl-cyclopropane-carboxylic acid (1H-benzoimidazol-2-yl)-amide] as the molecule, how does the IC50 read?
A: 1 to 10 µM

Q: With COC(=O)c1cccc2nc(NC(=O)C3CC3c3ccccc3Cl)[nH]c12 (single isomer, unassigned; enantiomer-2) [enantiomer-2-{[2-(2-Chloro-phenyl)-cyclopropane-carbonyl]-amino}-3H-benzoimidazole-4-carboxylic acid methyl ester] as the molecule, how does the IC50 read?
A: > 10 µM

Q: For CN(C)c1ccc(C2CC2C(=O)Nc2nc3ccccc3[nH]2)cc1 (racemic) [2-(4-Dimethylamino-phenyl)-cyclopropane-carboxylic acid (1H-benzoimidazol-2-yl)-amide], which IC50 is on record?
A: 1 to 10 µM

Q: With O=C(O)c1ccc2[nH]c(NC(=O)C3CC3c3ccccc3)nc2c1 (racemic) [2-[(2-Phenyl-cyclopropane-carbonyl)-amino]-1H-benzoimidazole-5-carboxylic acid] as the molecule, how does the IC50 read?
A: > 10 µM

Q: Which IC50 does the source give for O=C(Nc1nc2ccccc2[nH]1)C1CC1c1ccc(Cl)cc1 (racemic) [2-(4-Chloro-phenyl)-cyclopropane-carboxylic acid (1H-benzoimidazol-2-yl)-amide] here?
A: > 10 µM

Q: For CC(C)(C)OC(=O)NCc1ccc2[nH]c(NC(=O)C3CC3c3ccccc3)nc2c1 (racemic) [{2-[(2-Phenyl-cyclopropane-carbonyl)-amino]-1H-benzoimidazol-5-ylmethyl}-carbamic acid tert-butyl ester], which IC50 is on record?
A: 0.1 to 1 µM

Q: With O=C(Nc1nc2ccnc(Cl)c2[nH]1)C1CC1c1ccccc1 (racemic) [2-Phenyl-cyclopropane-carboxylic acid (4-chloro-3H-imidazo[4,5-c]pyridin-2-yl)-amide] as the molecule, how does the IC50 read?
A: 0.01 to 0.1 µM

Q: N#Cc1ccc2nc(NC(=O)C3CC3c3ccccc3)[nH]c2c1 (single isomer, unassigned; enantiomer-2) [drawing 71, enantiomer-2-Phenyl-cyclopropane-carboxylic acid (6-cyano-1H-benzoimidazol-2-yl)-amide] was tested. Which IC50 did it give?
A: 0.01 to 0.1 µM

Q: Cc1ccc(C2CC2C(=O)Nc2nc3ccccc3[nH]2)cc1 (racemic) [2-p-Tolyl-cyclopropane-carboxylic acid (1H-benzoimidazol-2-yl)-amide] was tested. Which IC50 did it give?
A: 1 to 10 µM

Q: With CC1(C)C(C(=O)Nc2nc3ccc(C(F)(F)F)cc3[nH]2)C1c1ccccc1 (racemic) [2,2-Dimethyl-3-phenyl-cyclopropane-carboxylic acid (6-trifluoromethyl-1H-benzoimidazol-2-yl)-amide] as the molecule, how does the IC50 read?
A: > 10 µM

Q: With Nc1cccc2[nH]c(NC(=O)C3CC3c3ccccc3)nc12 (racemic) [2-Phenyl-cyclopropane-carboxylic acid (4-amino-1H-benzoimidazol-2-yl)-amide] as the molecule, how does the IC50 read?
A: 0.01 to 0.1 µM

Q: How did the IC50 turn out when O=C(Nc1nc2ccccc2[nH]1)C1CC1c1ccccc1 (racemic) [2-Phenyl-cyclopropane-carboxylic acid (1H-benzoimidazol-2-yl)-amide] was run?
A: 0.01 to 0.1 µM

Q: N#Cc1ccc2nc(NC(=O)C3CC3c3ccccc3Cl)[nH]c2c1 (racemic) [2-(2-Chloro-phenyl)-cyclopropane-carboxylic acid (6-cyano-1H-benzoimidazol-2-yl)-amide] was tested. Which IC50 did it give?
A: 0.01 to 0.1 µM

Q: With CC1(C)C(C(=O)Nc2nc3ccc(C#N)cc3[nH]2)C1c1ccccc1 (racemic) [2,2-Dimethyl-3-phenyl-cyclopropane-carboxylic acid (6-cyano-1H-benzoimidazol-2-yl)-amide] as the molecule, how does the IC50 read?
A: > 10 µM

Q: N#Cc1ccc2nc(NC(=O)C3CC3c3ccccc3)[nH]c2c1 (single isomer, unassigned; enantiomer-2) [drawing 72, enantiomer-2-Phenyl-cyclopropane-carboxylic acid (6-cyano-1H-benzoimidazol-2-yl)-amide] was tested. Which IC50 did it give?
A: 1 to 10 µM

Q: N#Cc1ccc2nc(NC(=O)C3C(c4ccccc4)C3(F)F)[nH]c2c1 (racemic) [2,2-Difluoro-3-phenyl-cyclopropane-carboxylic acid (6-cyano-1H-benzoimidazol-2-yl)-amide] was tested. Which IC50 did it give?
A: 0.1 to 1 µM

Q: How did the IC50 turn out when CCCS(=O)(=O)c1ccc2[nH]c(NC(=O)C3CC3c3ccccc3)nc2c1 (racemic) [2-Phenyl-cyclopropane-carboxylic acid [5-(propane-1-sulfonyl)-1H-benzoimidazol-2-yl]-amide] was run?
A: 1 to 10 µM

Q: With O=C(Nc1nc2ccccc2[nH]1)C1CC1c1ccccc1Cl (single isomer, unassigned; enantiomer-2) [drawing 75, enantiomer-2-(2-Chloro-phenyl)-cyclopropane-carboxylic acid (1H-benzoimidazol-2-yl)-amide] as the molecule, how does the IC50 read?
A: 0.01 to 0.1 µM

Q: With NCc1ccc2[nH]c(NC(=O)C3CC3c3ccccc3)nc2c1 (racemic) [2-Phenyl-cyclopropane-carboxylic acid (5-aminomethyl-1H-benzoimidazol-2-yl)-amide] as the molecule, how does the IC50 read?
A: 1 to 10 µM

Q: For Cc1ccc2nc(NC(=O)C3CC3c3ccccc3)[nH]c2c1 (racemic) [2-Phenyl-cyclopropane-carboxylic acid (6-methyl-1H-benzoimidazol-2-yl)-amide], which IC50 is on record?
A: 0.1 to 1 µM
